# A melting point compilation (Tetko et al.; mined from patent text by program, amines drawn as free bases though some values may be those of a salt)
row,Structure (SMILES),melting point [°C]
1,O=C(Nc1c(C(O)(C(F)(F)F)C(F)(F)F)ccc2ccccc12)c1cccnc1,214 to 215
2,Cc1cc(NCCO)n2ncc([N+](=O)[O-])c2n1,231
3,Cn1c2ccccc2c2cc(NC(=O)c3ccccc3Cl)ccc21,206
4,CC(n1cncn1)C(O)(COc1ccc(Cl)cc1)C(C)(C)C (configuration not stated),80 to 104
5,CC(C)(C)c1cc(CCc2ccccc2NC(=O)NC2CCCCCC2)cc(C(C)(C)C)c1O,177 to 178
6,CC(C)(Cc1cc([N+](=O)[O-])c(F)cc1Cl)C(=O)O,102 to 104
7,CC(C)(C)[Si](C)(C)OC(CCCOC1CCCCO1)COc1ccc2c(=O)cc(-c3ccccc3)oc2c1 (configuration not stated),138 to 145
8,O=c1cc(-c2cc(OCc3ccccc3)cc(OCc3ccccc3)c2)oc2cc(OCC3CO3)ccc12 (configuration not stated),172 to 173
9,C=CCCc1cccc2c1C(=O)C1=C(CCCC1)C2=O,111 to 113
10,CC1CC(=O)NN=C1c1ccc(NN=C(c2ccc(O)cc2O)c2ccc(O)cc2O)cc1 (configuration not stated),150 to 175
11,CCC12CCCN3CCC4(C(=C(C(=O)OC)C1)Nc1ccccc14)C32 (configuration not stated),124 to 125
12,Cc1cc(O)c(Cl)c(O)c1,72
13,Cc1c(C)c2c(c(C)c1N)CC(C)(CI)O2 (configuration not stated),105 to 107
14,CCCc1nc2c(c(C)c(C)n3nnnc23)n1CC(C)(C)N,154 to 156
15,O=C1NCCN1c1ccc(S(=O)(=O)Nc2ccccc2)cc1,262 to 264
16,CCCCCc1n[nH]c(CCCCC)n1,66 to 68
17,CC(Br)(CBr)CS(=O)(=O)Oc1ccc([N+](=O)[O-])cc1 (configuration not stated),56 to 58
18,CC(C)Cn1c(C#N)c(-c2ccccc2)c2cccnc2c1=O,221 to 222
19,CC(C)(C)c1ccc(OC(Cc2ccc(OCCNC(=O)c3ccc(-c4ccccn4)cc3)cc2)C(=O)O)cc1 (configuration not stated),94 to 96
20,Oc1ccc2c(c1)CCCC2Cc1c[nH]cn1 (configuration not stated),200 to 205
21,CCC(=O)Oc1ccc(-c2nn(C3CCCC3)c3c(F)cccc23)cc1,60 to 61
22,N#Cc1ccccc1Cn1cc(-c2ccnc(Cl)c2)n(-c2ccc(F)cc2)c1=O,109
23,Cc1nc2c(C(=O)NC(C)(C(N)=O)C(C)C)cc(C(=O)O)cc2n1C (configuration not stated),246 to 248

row,Structure (SMILES),melting point [°C]
1,O=C(NC(=O)c1c(F)cccc1F)Nc1cc(Cl)c(OC(F)(F)C(F)(F)F)cc1Cl,178 to 179
2,Cc1ccccc1CC(=O)c1c(O)c2cccnc2n(-c2cccc(OC(F)(F)F)c2)c1=O,132 to 134
3,CC(C)(NC(=O)CCn1cncc1C=O)c1ccc(Cl)cc1,127 to 129
4,CCCCc1oc2ccccc2c1C(=O)NCc1ccc2c(Br)c(O)ccc2c1,192 to 193
5,CS(=O)(=O)Oc1ccc(S)cc1,66 to 68
6,O=C(/C=C/c1c[nH]c2ccccc12)c1ccccn1,141 to 145
7,CC(=O)c1c(-c2ccc(O)cc2)oc2ccc(O)cc12,243 to 251
8,O=C1CC2(c3ccccc3)CCCC2C(=O)N1Cc1ccccc1 (configuration not stated),77 to 79
9,O=C1c2ccccc2C(=O)c2c1c(O)c1ccccc1c2O,214 to 216
10,"CCCCCCCC(=O)OC(C)c1ccc(-c2ccc(OCc3ccccc3)cc2)cc1 (single isomer, unassigned; (+))",91 to 92
11,O=C(O)c1cn(C2CC2)c2cc(Cl)ccc2c1=O,307 to 308
12,FC(F)C(F)(F)Sc1nc(-c2ccc(Cl)cc2)c(-c2cccs2)[nH]1,162 to 163
13,CC(=O)c1cc(Oc2ncccc2C(=O)NC[C@H]2CC[C@H](C(C)(C)O)CC2)ccc1Cl,106 to 108
14,CC(C)CC(=O)Nc1cccc(-c2ccnc3c(-c4cccc(CN5CCOCC5)c4)cnn23)c1,170 to 173
15,CC(=O)Nc1cc(Cl)c(C)c(Cl)c1O,175 to 176
16,CC#CCOc1ccc(S(=O)(=O)C2(C(=O)O)CCN(C(C)C)CC2)cc1,233
17,CNC(C)=C(C(C)=O)S(=O)(=O)NC(=O)Nc1nc(C)cc(C)n1,192
18,NC(=O)c1ccc(-c2ccccc2C(=O)N2Cc3cccn3Cc3ccccc32)cc1C(F)(F)F,226 to 228
19,CCOCc1nc2c(N)nc3ccccc3c2n1CCCCS(=O)(=O)N1CCCCC1,185 to 188
20,N#Cc1ccc(F)c(-c2ccc(OC(F)(F)F)cc2)c1,63.5 to 64.2
21,Cc1ccc2c(c1)c(-c1ccc(F)cc1)c(C)n2-c1ccncc1,172 to 174
22,Cc1ccc(-c2nc(C(F)(F)F)nc(Cl)c2-c2ccccc2)cc1,97 to 100
23,Cc1cc(C)c(N2CCCCC2=O)cc1NS(=O)(=O)C(F)(F)F,260 to 266

row,Structure (SMILES),melting point [°C]
1,O=C(O)C(=O)c1ccc(OCC(=O)C2CCCCCCC2)cc1,109 to 110
2,C[C@@H](NC(=O)c1cnn(-c2ccc(Cl)cc2)c1C(C)(C)C)[C@](O)(Cn1cncn1)c1ccc(F)cc1F,191 to 192
3,N[C@@]1(C(=O)O)C[C@H](NC(=O)Nc2ccc(Cl)cc2)[C@H]2[C@H](C(=O)O)[C@H]21 (relative stereo),> 250
4,CCOC(=O)CC[C@H](NC(=O)c1ccc(I)cc1)C(=O)OCC,105 to 106
5,CCN(C)CCc1[nH]c2ccccc2c1CSc1ccccc1,77 to 79
6,Fc1ccc(-c2ccn(C3CCNCC3)c2-c2ccncc2)cc1,191 to 192
7,N#CCCc1ccc(OCC2(O)CN3CCC2CC3)cc1 (configuration not stated),92 to 94
8,Cc1nn(-c2cnccn2)c(-c2ccccc2)c1CC(=O)O,125
9,Cc1nc2cc3c(cc2s1)C1(CO3)C(=O)N(CC2CCOCC2)c2ccccc21 (configuration not stated),186 to 187
10,OC(CNCCCCCCOCCCc1ccc(N2CCCCC2)cc1)c1ccc2c(n1)COC(c1ccccc1)O2 (configuration not stated),75 to 76
11,NS(=O)(=O)c1cncc([N+](=O)[O-])c1,168
12,CS(=O)(=O)c1ccc(-c2cc(C(F)(F)F)nn2-c2ccc(OC(F)(F)F)cc2)cc1F,110 to 112
13,CS(=O)(=O)c1ccc(C(CC2CCCC2)C(=O)Nc2ccccn2)cc1[N+](=O)[O-] (configuration not stated),92 to 95
14,COC(=O)[C@H](CC(C)C)NC(=O)[C@@H](O)[C@@H](Cc1ccc(SC)cc1)NC(=O)OCc1ccccc1,130 to 132
15,Cc1nc(N2CCN(CC3CC3)C2=O)sc1C(=O)NCc1ncco1,172 to 174
16,CCCCOC(=O)C=Cc1ccc(C=CC(=O)OCCCC)c2nsnc12,90 to 94
17,CCCCCCC(N)(c1ccccc1)C(C)(C)O (configuration not stated),64.5 to 65.5
18,Oc1cc(Br)c2oc(-c3ccc(O)c(C(F)(F)F)c3)nc2c1,183 to 185
19,CC(Cl)(Cl)C(NC(=O)c1cc(F)cc(F)c1)Nc1c(Nc2cccnc2)c(=O)c1=O (configuration not stated),231 to 232
20,c1ccc(Cn2ncc3c2Cc2cn[nH]c2-3)cc1,61 to 72
21,COc1ccc(C(=O)NC[C@@H](C(=O)NO)N2CCN(S(C)(=O)=O)CC2)cc1,158

# Continued, values first:
row,melting point [°C],Structure (SMILES)
1,149 to 160,CCOC(=O)C1=C(COCC(C)(O)Cn2cncn2)NC(C)=C(C(=O)OC)C1c1cccc(Cl)c1Cl (configuration not stated)
2,158 to 160,CCOc1cc2c(Nc3cc(OC)c(Cl)cc3Cl)c(C#N)cnc2cc1C#CCCN1CCN(C)CC1
3,93 to 96,Cc1ccc(NC(=O)Nc2cc(C(C)(C)C)sc2CNC(=O)CN)cc1
4,175,CCOc1ccc2c(c1)n(-c1ccccn1)c(=O)n2S(=O)(=O)c1ccc([N+](=O)[O-])cc1OC
5,32 to 33,CSc1c(C)[nH]c2c(C)cccc12
6,113 to 115,Cc1ccc(S(=O)(=O)OCC2Cc3cccc(-c4cc(Cl)cc(Cl)c4)c3O2)cc1 (configuration not stated)
7,346 to 348,COc1ccc(Cc2c(C)c3c(N)nc(N)nc3[nH]c2=O)cc1OC
8,179 to 180,CCc1c(Oc2cc(C)cc(C)c2)n(CC2CC=CC2)c(=O)[nH]c1=O
9,256 to 257,O=C(O)Cc1c(C(=O)c2ccncc2)[nH]c2cc(Cl)ccc12
10,96 to 98,CCc1nn(-c2c(Cl)cc(C(F)(F)F)cc2Cl)c(CC)c1Cc1c(OC)ccc2ccccc12
11,159 to 161,COc1ccc(/C=C/CN2CCN(C3c4ccccc4CCc4ncccc43)CC2)cc1[N+](=O)[O-] (configuration not stated)
12,65 to 74,COc1cc(Cc2cnc(NCCSCc3cc(CN(C)C)ccn3)[nH]c2=O)ccn1
13,139 to 140,COCOc1cc(C(F)(F)F)ccc1-c1cc(-c2cccc([N+](=O)[O-])c2)c(C#N)c(NC(=O)c2cccs2)n1
14,123 to 125,COc1cc(CC(=O)NC(CC(C)C)c2cc(CC(NC(C)=O)C(=O)O)on2)ccc1NC(=O)Nc1ccccc1C (configuration not stated)
15,208 to 210,COCCn1nc(-c2sc(N)nc2-c2ccccc2)ccc1=O
16,98 to 100,CCCC(Oc1cccc(-c2noc(C)n2)c1)C(=O)O (configuration not stated)
17,222,CC(C)(C)OC(=O)N1CC=C(C2=C(C#N)C(c3cccc4nonc34)c3c[nH]nc3N2)CC1 (configuration not stated)
18,160 to 161,COC(=O)[C@H](CC(C)C)NC(=O)c1ccc2c(c1)Nc1ccccc1S2
19,261,Cc1c(Nc2c(C#N)cnc3scc(C)c23)ccc2[nH]ccc12
20,84 to 85,CCc1cnc(N)c2ccccc12
21,111 to 113,CCn1ncc2c(Cl)c3c(nc21)CCc1ccccc1C3=O
22,195 to 196,Cc1ncn(Cc2ccc(NC(=O)Nc3ccc(Oc4cc(Cl)ncn4)cc3)cc2C(F)(F)F)c1C
23,245 to 246,Oc1cc(Nc2nnc(Cc3ccncc3)c3ccccc23)ccc1Cl
24,137 to 139,COc1ccc(C2=NN(C3CCN(C(=O)CCSCCN)CC3)C(=O)[C@@H]3CC=CC[C@H]23)cc1OC
25,199 to 200,Cc1ccc(C(=O)c2cc3cc(OCc4ccccc4)ccc3[nH]2)cc1
26,68 to 74,COc1cc(Cl)nc(S(C)(=O)=O)n1
27,232 to 235,CCCCn1nc2c(N)nc3ncccc3c2c1CC(C)(C)O
28,189 to 190,Cc1cc(-c2nc3cccnn3c2-c2ccnc(NC(=O)NCCO)c2)ccc1F
29,167 to 171,Nc1cc(Cl)cc(Cl)c1C(=O)NCc1cccc(Cl)c1
30,111 to 113,CCOC(=O)c1cc(CBr)cc(C(=O)OCC)c1
